30 compounds from patent US20160159814A1, “GLYCINE TRANSPORTER INHIBITOR” (TAISHO PHARMACEUTICAL CO., LTD., priority 2013, published 2016) can be followed below.

The test has as its target T1, human type 1 glycine transporter (GlyT1) (Homo sapiens, UniProt P48067).
T1 construct: T98G cells (glioma cells) expressing human type 1 glycine transporter (GlyT1) were used; endogenous in cells; host or cells: T98G cells (human glioma cells)
T1 sequence (P48067 1-706): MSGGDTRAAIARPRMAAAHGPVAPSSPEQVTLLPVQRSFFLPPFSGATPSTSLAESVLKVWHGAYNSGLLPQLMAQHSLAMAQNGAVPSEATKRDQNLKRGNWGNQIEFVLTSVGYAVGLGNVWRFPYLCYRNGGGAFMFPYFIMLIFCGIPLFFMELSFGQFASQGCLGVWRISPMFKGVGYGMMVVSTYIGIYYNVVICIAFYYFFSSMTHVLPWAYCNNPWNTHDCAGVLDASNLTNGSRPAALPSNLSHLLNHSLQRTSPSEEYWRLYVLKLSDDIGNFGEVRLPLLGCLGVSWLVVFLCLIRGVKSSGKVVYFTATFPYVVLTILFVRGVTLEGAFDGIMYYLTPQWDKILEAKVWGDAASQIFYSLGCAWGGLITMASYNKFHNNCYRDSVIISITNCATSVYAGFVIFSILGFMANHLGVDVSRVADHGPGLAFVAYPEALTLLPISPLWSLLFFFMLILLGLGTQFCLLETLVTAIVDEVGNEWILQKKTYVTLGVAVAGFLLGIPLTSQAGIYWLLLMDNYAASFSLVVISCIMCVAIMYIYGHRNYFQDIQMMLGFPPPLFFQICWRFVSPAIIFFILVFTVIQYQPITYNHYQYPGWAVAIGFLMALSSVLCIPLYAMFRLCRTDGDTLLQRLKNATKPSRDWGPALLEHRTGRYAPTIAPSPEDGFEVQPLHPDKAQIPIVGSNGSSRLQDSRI
Put plainly: Glycine uptake inhibition experiment ([3H] glycine uptake in T98G cells expressing GlyT1). It counts as cell-based. The method in brief:
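T98G glioma cells expressing human GlyT1 were pretreated 10 min with compound in HEPES buffer pH 7.4 (0.2% BSA), then incubated with compound plus 250 nM final [3H]glycine for 15 min at room temperature. Intracellular radioactivity was counted after NaOH lysis; 10 μM ALX5407 defined non-specific uptake. IC50 came from 10^−9–10^−5 M curves.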

The mark [1] stands for this setting: table section whose head prints (μm).

Where two headings read alike, the source gives them in different places.

As for `COc1cccc(CN2C(=O)C(F)(F)c3c([C@H](C)O)cccc32)n1` [Compound 68, 3,3-difluoro-4-[(1S)-1-hydroxyethyl]-1-[(6-methoxypyridin-2-yl)methyl]-1,3-dihydro-2H-indol-2-one], the IC50 (as a rule, the point on the concentration scale where inhibition reaches its midpoint) (glycine uptake inhibition) is 76 nM.

With `C[C@H](O)c1cccc2c1C(F)(F)C(=O)N2Cc1ccccc1` [Compound 54, 1-benzyl-3,3-difluoro-4-[(1S)-1-hydroxyethyl]-1,3-dihydro-2H-indol-2-one], the IC50 (glycine uptake inhibition) came to 20 nM. This IC50 lies about 3.8-fold lower than the previous one.

Take `C[C@H](O)c1cccc2c1C(F)(F)C(=O)N2Cc1ccnc(F)c1` [Compound 42, 3,3-difluoro-1-[(2-fluoropyridin-4-yl)methyl]-4-[(1S)-1-hydroxyethyl]-1,3-dihydro-2H-indol-2-one]: under “glycine uptake inhibition”, the IC50 was found to be 50 nM.

In turn, `O=C1N(Cc2cc(Cl)ccn2)c2cccc([C@@H](O)C(F)(F)F)c2C1(F)F` [Compound 145, 1-[(4-chloropyndin-2-yl)methyl]-3,3-difluoro-4-[(1R)-2,2,2-trifluoro-1-hydroxyethyl]-1,3-dihydro-2H-indol-2-one] came in with an IC50 (glycine uptake inhibition) of 43 nM.

As for `N#Cc1cc(CN2C(=O)C(F)(F)c3c(C(O)C(F)F)cccc32)cc(Cl)n1` (single isomer, unassigned) [Compound 264, 6-chloro-4-{[4-(2,2-difluoro-1-hydroxyethyl)-3,3-difluoro-2-oxo-2,3-dihydro-1H-indol-1-yl]methyl}pyridine-2-carbonitrile], the midpoint of inhibition under setting [1], the IC50, lay at 170 nM.

For the setting “glycine uptake inhibition”, `N#Cc1cc(CN2C(=O)C(F)(F)c3c(C(O)C(F)F)cccc32)ccn1` (single isomer, unassigned) [Compound 110, 4-{[4-(2,2-difluoro-1-hydroxyethyl)-3,3-difluoro-2-oxo-2,3-dihydro-1H-indol-1-yl]methyl}pyridine-2-carbonitrile] returned an IC50 of 2100 nM.

Consider `COc1cc(CN2C(=O)C(F)(F)c3c([C@H](C)O)cccc32)ncc1Cl` [Compound 232, 1-[(5-chloro-4-methoxypyridin-2-yl)methyl)-3,3-difluoro-4-[(1S)-1-hydroxyethyl]-1,3-dihydro-2H-indol-2-one], for which the IC50 is 32 nM.

Compound `C[C@H](O)c1cccc2c1C(F)(F)C(=O)N2Cc1ncccc1Cl` [Compound 206, 1-[(3-chloropyridin-2-yl)methyl]-3,3-difluoro-4-[(1S)-1-hydroxyethyl]-1,3-dihydro-2H-indol-2-one] had an IC50 of 60 nM. This IC50 lies about 1.9-fold higher than the previous one.

`O=C1N(Cc2cccc(C(F)F)n2)c2cccc(C(O)C(F)F)c2C1(F)F` (single isomer, unassigned) [Compound 153, 4-(2,2-difluoro-1-hydroxyethyl)-1-{[6-(difluoromethyl)pyridin-2-yl]methyl}-3,3-difluoro-1,3-dihydro-2H-indol-2-one] displayed an IC50 (glycine uptake inhibition) of 130 nM.

For the setting “glycine uptake inhibition”, `C[C@H](O)c1cccc2c1C(F)(F)C(=O)N2Cc1cccc(C(F)F)n1` [Compound 82, 1-{[6-(difluoromethyl)pyridin-2-yl]methyl}-3,3-difluoro-4-[(1S)-1-hydroxyethyl]-1,3-dihydro-2H-indol-2-one] had an IC50 of 44 nM.

Consider `C[C@H](O)c1cccc2c1C(F)(F)C(=O)N2Cc1nc2ccccc2[nH]1` [Compound 88, 1-(1H-benzimidazol-2-ylmethyl)-3,3-difluoro-4-[(1S)-1-hydroxyethyl)-1,3-dihydro-2H-indol-2-one], for which, under “glycine uptake inhibition”, the IC50 amounted to 87 nM.

As for `CC(O)c1cccc2c1C(F)(F)C(=O)N2Cc1cccc(Cl)n1` (stereo not drawn) [Compound 1, 1-[(6-chloropyridin-2-yl)methyl]-3,8-difluoro-4-(1-hydroxyethyl)-1,3-dihydro-2H-indol-2-one], the IC50 (glycine uptake inhibition) was found to be 15 nM.

Where the note is “glycine uptake inhibition”, `C[C@H](O)c1cccc2c1C(F)(F)C(=O)N2Cc1ccc2ncoc2c1` [Compound 127, 1-(1,3-benzoxazol-6-ylmethyl)-3,3-difluoro-4-[(1S)-1-hydroxyethyl]-1,3-dihydro-2H-indol-2-one] showed an IC50 of 29 nM.

In the case of `O=C1N(Cc2cncc(F)c2)c2cccc(C(O)C(F)F)c2C1(F)F` (single isomer, unassigned) [Compound 144, 4-(2,2-difluoro-1-hydroxyethyl)-3,3-difluoro-1-[(5-fluoropyridin-3-yl)methyl]-1,3-dihydro-2H-indol-2-one], the IC50 (glycine uptake inhibition) amounted to 240 nM.

Under setting [1], `O=C1N(Cc2ccc(F)c(Cl)n2)c2cccc(C(O)C(F)F)c2C1(F)F` (single isomer, unassigned) [Compound 263, 1-[(6-chloro-5-fluoropyridin-2-yl)methyl]-4-(2,2-difluoro-1-hydroxyethyl)-3,3-difluoro-1,3-dihydro-2H-indol-2-one] gave an IC50 of 11 nM. This lies in the double-digit nanomolar range.

Regarding `C[C@H](O)c1cccc2c1C(F)(F)C(=O)N2Cc1cnc(F)c(Br)c1` [Compound 228, 1-[(5-bromo-6-fluoropyridin-3-yl)methyl]-3,3-difluoro-4-[(1S)-1-hydroxyethyl]-1,3-dihydro-2H-indol-2-one], half-maximal inhibition (IC50) was put at 2.1 nM.

`CC(O)c1cccc2c1C(F)(F)C(=O)N2Cc1ccnc(Cl)c1` (single isomer, unassigned) [Compound 34, 1-[(2-chloropyridin-4-yl)methyl]-3,3-difluoro-4-(1-hydroxyethyl)-1,3-dihydro-2H-indol-2-one] gave a concentration for half-maximal inhibition (IC50) (glycine uptake inhibition) of 4600 nM. This counts as single-digit micromolar.

Turning to `O=C1N(Cc2cnc3ccccc3c2)c2cccc([C@@H](O)C(F)(F)F)c2C1(F)F` [Compound 133, 3,3-difluoro-1-(quinolin-3-ylmethyl)-4-[(1R)-2,2,2-trifluoro-1-hydroxyethyl]-1,3-dihydro-2H-indol-2-one], the IC50 (glycine uptake inhibition) stood at 62 nM. Against the preceding compound, the IC50 is about 74-fold lower.

Where the note is “glycine uptake inhibition”, `C[C@H](O)c1cccc2c1C(F)(F)C(=O)N2Cc1cccc(Cl)c1` [Compound 55, 1-(3-chlorobenzyl)-3,3-difluoro-4-[(1S)-1-hydroxyethyl]-1,3-dihydro-2H-indol-2-one] showed an IC50 of 2.2 nM.

`C[C@H](O)c1cccc2c1C(F)(F)C(=O)N2Cc1cncc(-n2cncn2)c1` [Compound 129]: the IC50 (glycine uptake inhibition) came out at 6900 nM.

For the compound `N#Cc1cc(CN2C(=O)C(F)(F)c3c(C(O)C(F)F)cccc32)c(Cl)cn1` (single isomer, unassigned) [Compound 220], half-maximal inhibition (IC50) required 170 nM.

Consider `COc1cccc(CN2C(=O)C(F)(F)c3c([C@H](C)O)cccc32)c1` [Compound 59, 3,3-difluoro-4-[(1S)-1-hydroxyethyl]-1-(3-methoxybenzyl)-1,3-dihydro-2H-indol-2-one], for which, for the setting “glycine uptake inhibition”, half-maximal inhibition (IC50) was put at 18 nM.

Where the note is “glycine uptake inhibition”, `C[C@H](O)c1cccc2c1C(F)(F)C(=O)N2Cc1cccc(-n2cncn2)n1` [Compound 62, 3,3-difluoro-4-[(1S)-1-hydroxyethyl]-1-{[6-(1H-1,2,4-triazol-1-yl)pyridin-2-yl]methyl}-1,3-dihydro-2H-indol-2-one] had an IC50 of 230 nM.

`C[C@H](O)c1cccc2c1C(F)(F)C(=O)N2Cc1ccc2nccnc2c1` [Compound 46, 3,3-difluoro-4-[(1S)-1-hydroxyethyl]-1-(quinoxalin-6-ylmethyl)-1,3-dihydro-2H-indol-2-one] showed an IC50 (glycine uptake inhibition) of 140 nM.

The compound `O=C1N(Cc2ccccc2)c2cccc(C(O)C(F)F)c2C1(F)F` (single isomer, unassigned) [Compound 157, 1-benzyl-4-(2,2-difluoro-1-hydroxyethyl)-3,3-difluoro-1,3-dihydro-2H-indol-2-one] returned an IC50 (glycine uptake inhibition) of 21 nM. Compared with the last compound, the IC50 is about 6.7-fold lower.

`C[C@H](O)c1cccc2c1C(F)(F)C(=O)N2Cc1cncc(C#N)c1` [Compound 70, 5-({3,3-difluoro-4-[(1S)-1-hydroxyethyl]-2-oxo-2,3-dihydro-1H-indol-1-yl}methyl)pyridine-3-carbonitile] had an IC50 (glycine uptake inhibition) of 91 nM.

For the compound `C[C@H](O)c1cccc2c1C(F)(F)C(=O)N2Cc1ccc(-n2cncn2)nc1` [Compound 193, 3,3-difluoro-4-[(1S)-1-hydroxyethyl]-1-{[6-(1H-1,2,4-biazol-1-yl)pyridin-3-yl]methyl}-1,3-dihydro-2H-indol-2-one], inhibition was half-maximal at 1400 nM (IC50).

In the case of `Cn1c(CN2C(=O)C(F)(F)c3c(C(O)C(F)F)cccc32)nc2ccccc21` (single isomer, unassigned) [Compound 170, 4-(2,2-difluoro-1-hydroxyethyl)-3,3-difluoro-1-[(1-methyl-1H-benzimidazol-2-yl)methyl]-1,3-dihydro-2H-indol-2-one], the IC50 worked out at 110 nM.

For the compound `C[C@H](O)c1cccc2c1C(F)(F)C(=O)N2Cc1cnc(Cl)c(C#N)c1` [Compound 251, 2-chloro-5-({3,3-difluoro-4-[(1S)-1-hydroxyethyl]-2-oxo-2,3-dihydro-1H-indol-1-yl)methyl)pyridine-3-carbonitrile], the IC50 was determined as 20 nM. Compared with the last compound, the IC50 is about 5.5-fold lower.

Take `C[C@H](O)c1cccc2c1C(F)(F)C(=O)N2Cc1ccc(Cl)nc1C#N` [Compound 248, 6-chloro-3-({3,3-difluoro-4-[(1S)-1-hydroxyethyl]-2-oxo-2,3-dihydro-1H-indol-1-yl}methyl)pyridine-2-carbonitrile]: inhibition was half-maximal at 1200 nM (IC50).
